# Literature values, collected in US20250144015A1, “Pharmaceutical Compositions” (Extrovis AG, priority 2023, published 2025).
# System: opioid craving
# Details: single high dose of 16 mg or 32 mg; opioid-dependent patients
smiles,measurement,value
"CO[C@@]12CC[C@@]3(C[C@@H]1[C@](C)(O)C(C)(C)C)C1Cc4ccc(O)c5c4[C@@]3(CCN1CC1CC1)[C@H]2O5 [buprenorphine, [5α,7α(S)]-17-(Cyclopropylmethyl)-α-(1,1-dimethylethyl)-4,5-epoxy-18,19-dihydo-3-hydroxy-6-methoxy-α-methyl-6,14-ethenomorphinan-7-methanol]",Effect on opioid craving,reduce opioid craving
